Earlier results in patent US20220331448A1, “COMPOSITIONS AND METHODS FOR TREATING SUCCINIC SEMIALDEHYDE DEHYDROGENASE DEFICIENCY (SSADHD)” (Washington State University, priority 2018, published 2022).

What was measured:
GABA-transaminase = target: T1, GABA-transaminase (Mus musculus, UniProt P61922); settings: daily doses ˜10 mg/kg or osmotic minipumps; cited from earlier work
T1 construct: from tissue; host or cells: living mice (CNS), endogenous enzyme

aldh5a1−/− mice = settings: cited from earlier work

T1 sequence (P61922 29-500): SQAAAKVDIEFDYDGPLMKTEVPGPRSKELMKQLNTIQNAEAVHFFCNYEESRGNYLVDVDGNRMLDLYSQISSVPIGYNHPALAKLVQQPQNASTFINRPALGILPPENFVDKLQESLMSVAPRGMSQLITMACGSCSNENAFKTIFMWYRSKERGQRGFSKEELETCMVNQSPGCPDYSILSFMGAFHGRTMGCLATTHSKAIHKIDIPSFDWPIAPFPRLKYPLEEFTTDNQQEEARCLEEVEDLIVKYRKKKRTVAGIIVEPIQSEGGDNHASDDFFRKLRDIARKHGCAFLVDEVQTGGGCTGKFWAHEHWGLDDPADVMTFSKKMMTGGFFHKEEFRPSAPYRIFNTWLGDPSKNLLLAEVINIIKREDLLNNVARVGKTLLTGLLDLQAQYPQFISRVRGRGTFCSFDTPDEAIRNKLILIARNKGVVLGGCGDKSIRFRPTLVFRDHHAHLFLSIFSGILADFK

For `C=CC(N)CCC(=O)O` (centres unmarked) [vigabatrin], the “GABA in the CNS” value (GABA-transaminase) is listed as “significantly elevated” and the “rescue from premature lethality / lifespan extension” value (aldh5a1−/− mice) is listed as “rescue”.
